Assay results reported in patent EP0888346B1, “CORALYNE ANALOGS AS TOPOISOMERASE INHIBITORS” (RUTGERS, THE STATE UNIVERSITY OF NEW JERSEY, priority 1996, dated 1997).
Several values for one entry are separate records, joined by “and”; a condition that tells them apart may be missing. Equal entries are not always repeated.

What was measured:
[1] = system: calf thymus topoisomerase II; test: Topo II cleavage assay (plasmid YEpG DNA); format: biochemical; conditions: concentration relative to VM-26 = 1 producing the same cleavage on the plasmid DNA
From the text: The plasmid pET11a and the E. coli strain BL21(DE3) used for enzyme expression were purchased from Novagen. IPTG was purchased from Sigma. The ECL system used for the Western blotting analysis of bacterial lysates was from Amersham (UK). All the restriction enzymes and Vent polymerase were from New England Biolabs. Mammalian topoisomerase II was isolated from calf thymus glands according to the published procedure (Halligan et al., J. Biol. Chem. 260:2475-2482 (1985)). The single copy yeast plasmids YCpGAL1 expressing various topoisomerase I genes in JN2-134 yeast strain were a kind gift of Dr. M-A. Bjornsti (Thomas Jefferson University, Philadelphia, PA). All bacterial and yeast media were from Difco (Detroit, MI), while cell culture media were purchased from Gibco-BRL (Gaithersburg, MD).
(§1) Cleavage assays for the recombinant topoisomerases I and calf thymus topoisomerases I and II were done as described (Liu et al., J. Biol. Chem. 258:15365-15370 (1983)). The plasmid YEpG DNA used for the cleavage assays was prepared and labeled at its 3'-end using the published procedures.

human topoisomerase I = target: T1, human topoisomerase I (Homo sapiens, UniProt P11387); test: Topo I cleavage assay (plasmid YEpG DNA); format: biochemical
T1 construct: 15 amino acid vector-derived fusion (pET-11a leader); made in house; host or cells: E. coli BL21(DE3)
T1 sequence (P11387 1-765): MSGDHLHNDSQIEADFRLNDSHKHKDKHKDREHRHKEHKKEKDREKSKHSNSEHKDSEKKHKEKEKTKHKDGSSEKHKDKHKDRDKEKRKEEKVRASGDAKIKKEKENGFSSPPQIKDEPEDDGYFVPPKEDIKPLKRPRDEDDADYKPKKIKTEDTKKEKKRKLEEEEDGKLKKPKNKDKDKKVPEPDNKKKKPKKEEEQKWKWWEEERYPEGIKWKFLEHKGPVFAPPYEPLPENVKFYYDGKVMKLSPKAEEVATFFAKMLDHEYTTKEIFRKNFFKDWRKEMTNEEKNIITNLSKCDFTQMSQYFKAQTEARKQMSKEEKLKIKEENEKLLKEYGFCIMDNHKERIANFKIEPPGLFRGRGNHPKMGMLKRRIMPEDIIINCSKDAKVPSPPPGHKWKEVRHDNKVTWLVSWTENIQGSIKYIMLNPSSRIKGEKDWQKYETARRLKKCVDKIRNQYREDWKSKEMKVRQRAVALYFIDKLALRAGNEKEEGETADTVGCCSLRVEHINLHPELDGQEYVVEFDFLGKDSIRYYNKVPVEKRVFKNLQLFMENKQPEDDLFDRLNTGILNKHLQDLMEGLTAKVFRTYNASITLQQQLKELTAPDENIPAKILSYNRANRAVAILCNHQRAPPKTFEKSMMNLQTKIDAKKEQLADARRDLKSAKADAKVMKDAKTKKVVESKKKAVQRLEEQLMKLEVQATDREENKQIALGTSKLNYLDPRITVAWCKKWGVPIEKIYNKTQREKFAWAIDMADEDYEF
From the text: To obtain large quantity of human topoisomerase I, the human topoisomerase I cDNA was cloned into the pET-11a vector, in which transcription of the cDNA is under the control of the inducible T7 promoter (Studier et al., Methods in Enzymol., Vol. 185:60-89, San Diego: Academic Press (1990)). Briefly, a 3.4 kb DNA fragment containing the entire coding sequence of human topoisomerase I and approximately 1 kb of untranslated region downstream of the stop codon was isolated from the plasmid YCpGAL1-hTOP1 (Bjornsti et al., Cancer Res. 49:6318-6323 (1989)) by cutting at the BamHI and EcoRI sites. The vector pET-11a was cut with the same restriction enzymes, dephosphorylated and ligated to the insert in the proper reading-frame downstream of the vector cloning site. The ligation mixture was used to transform E. coli, the correct clone pET1B was isolated (see figure 2A for the map) and its identity confirmed by restriction mapping. Since the translational start in pET is positioned at an upstream NdeI site, the expressed topoisomerase I has a 15 amino acid fusion at its N-terminus. pET1B was then transformed into E. coli BL21(DE3), and, upon induction with 0.4 mM IPTG for 1 hour, the bacterial lysate was analyzed by 10 % SDS-PAGE. Expression was confirmed by Western blotting using rabbit antibodies against human topoisomerase I. Isolation of the expressed protein was done by a simple procedure. Briefly, E. coli cells were lysed by repeated sonic bursts. The sonic extract was made in 1 M NaCl and 6% polyethylene glycol (PEG) to remove nucleic acids. The PEG supernatant was chromatographed directly on a hydroxyapatite column. Expressed human DNA topoisomerase I was eluted at the 0.6 M potassium phosphate step. The eluted enzyme was dialyzed against 50% glycerol, 30 mM potassium phosphate (pH 7.0), 1 mM dithiothreitol (DTT) and 0.1 mM EDTA and stored at -20°C.
as §1

CC[C@@]1(O)C(=O)OCc2c1cc1n(c2=O)Cc2cc3ccccc3nc2-1 [CPT, camptothecin, reference compound]
Topo II-mediated DNA cleavage (REC, Relative Effective Concentration) [1]: >1000 | Topo I-mediated DNA cleavage (REC, Relative Effective Concentration) (human topoisomerase I; concentration relative to camptothecin (CPT) = 1 producing the same cleavage on the plasmid DNA): 1 | EC (total cleavage) (human topoisomerase I; read-out: concentration giving total cleavage of DNA in the presence of topoisomerase I): 0.29 µM and 0.1 µg/mL
